# Test system: U87MG pLVX-IDH2 R140Q-neo cells
# Test: U87MG pLVX-IDH2 R140Q-neo cell based assay, 2-HG in media by LC-MS at 48 hours
# Settings: Homo sapiens, U-87 MG
# Procedure: U87MG pLVX-IDH2 R140Q-neo cells are grown in T125 flasks in DMEM containing 10% FBS, 1× penicillin/streptomycin and 500 μg/mL G418. They are harvested by trypsin and seeded into 96 well white bottom plates at a density of 5000 cell/well in 100 μl/well in DMEM with 10% FBS. No cells are plated in columns 1 and 12. Cells are incubated overnight at 37° C. in 5% CO2. The next day compounds are made up at 2× concentration and 100 ul are added to each cell well. The final concentration of DMSO is 0.2% and the DMSO control wells are plated in row G. The plates are then placed in the incubator for 48 hours. At 48 hours, 100 ul of media is removed from each well and analyzed by LC-MS for 2-HG concentrations. The cell plate is placed back in the incubator for another 24 hours. At 72 hours post compound addition, 10 mL/plate of Promega Cell Titer Glo reagent is thawed and mixed. The cell plate is removed from the incubator and allowed to equilibrate to room temperature. Then 100 ul of reagent is added to each well of media. The cell plate is then placed on an orbital shaker for 10 minutes and then allowed to sit at room temperature for 20 minutes. The plate is then read for luminescence with an integration time of 500 ms to determine compound effects on growth inhibition.
row,SMILES,IC50
1,"CC(C)(O)CNc1nc(Nc2ccncc2)nc(-c2ccccc2)n1 [Compound 265, 2-methyl-1-(4-phenyl-6-(pyridin-4-ylamino)-1,3,5-triazin-2-ylamino)propan-2-ol]",1000 to 10000 nM
2,"COCC(C)Nc1nc(Nc2ccncc2)nc(-c2ccccc2)n1 (stereo not shown) [Compound 272, N^2-(1-methoxypropan-2-yl)-6-phenyl-N^4-(pyridin-4-yl)-1,3,5-triazine-2,4-diamine]",100 to 1000 nM
3,"COCCCNc1nc(Nc2ccncc2)nc(-c2ccccc2)n1 [Compound 275, N^2-(3-methoxypropyl)-6-phenyl-N^4-(pyridin-4-yl)-1,3,5-triazine-2,4-diamine]",100 to 1000 nM
4,"CC[S+]([O-])c1cccc(Nc2nc(NC(C)C)nc(-c3ccccc3)n2)c1 (stereo not shown) [Compound 277, N^2-(3-(ethylsulfinyl)phenyl)-N^4-isopropyl-6-phenyl-1,3,5-triazine-2,4-diamine]",100 to 1000 nM
5,"Cc1ccc(Nc2nc(NC(C)C)nc(-c3ccccc3)n2)cn1 [Compound 281, N^2-isopropyl-N^4-(6-methylpyridin-3-yl)-6-phenyl-1,3,5-triazine-2,4-diamine]",100 to 1000 nM

# Molecular target: T1, IDH2 R140Q (Homo sapiens, UniProt P48735, R140Q)
# T1 sequence (P48735 40-452 R140Q): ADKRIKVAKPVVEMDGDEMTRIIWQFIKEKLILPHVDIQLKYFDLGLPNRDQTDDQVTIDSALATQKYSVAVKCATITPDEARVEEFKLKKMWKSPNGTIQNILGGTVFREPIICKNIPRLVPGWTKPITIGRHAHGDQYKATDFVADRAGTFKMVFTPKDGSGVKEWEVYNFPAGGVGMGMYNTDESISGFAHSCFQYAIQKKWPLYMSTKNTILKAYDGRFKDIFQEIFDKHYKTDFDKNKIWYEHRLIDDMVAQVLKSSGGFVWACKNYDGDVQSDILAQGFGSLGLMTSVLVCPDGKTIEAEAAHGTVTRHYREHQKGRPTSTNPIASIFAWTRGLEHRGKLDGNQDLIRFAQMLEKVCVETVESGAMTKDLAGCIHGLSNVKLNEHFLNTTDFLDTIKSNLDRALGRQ
# Test: IDH2 R140Q enzymatic assay (cofactor depletion, similar format)
# Assay type: biochemical
# Settings: not given
# Procedure: [The source words this procedure for another variant and says it was used here with some conditions changed.] Compounds are assayed for IDH2 R172K inhibitory activity through a cofactor depletion assay. […] The reaction is terminated by the addition of a second enzyme, diaphorase, and a corresponding substrate, resazurin. Diaphorase reduces resazurin to the highly fluorescent resorufin with the concomitant oxidation of NADPH to NADP, both halting the IDH2 reaction by depleting the available cofactor pool and facilitating quantitation of the amount of cofactor remaining after a specific time period through quantitative production of an easily detected fluorophore.
# The test compound is then incubated for one hour at room temperature with the enzyme; before starting the IDH2 reaction with the addition of 10 μl of substrate mix containing 50 μM NADPH and 6.3 mM α-KG in the buffer described above. After a further one hour of incubation at room temperature, the reaction is halted and the remaining NADPH measured through conversion of resazurin to resorufin by the addition of 25 μl Stop Mix (36 μg/ml diaphorase enzyme and 60 μM resazurin; in buffer).
row,SMILES,Enz R140Q
1,"c1ccc(-c2nc(NCC3CNCCO3)nc(Nc3ccncc3)n2)cc1 (stereo not shown) [Compound 234, N^2-(morpholin-2-ylmethyl)-6-phenyl-N^4-(pyridin-4-yl)-1,3,5-triazine-2,4-diamine]",No Fit
2,"CC(O)CNc1nc(Nc2ccncc2)nc(-c2ccccc2)n1 (stereo not shown) [Compound 271, 1-(4-phenyl-6-(pyridin-4-ylamino)-1,3,5-triazin-2-ylamino)propan-2-ol]",No Fit
3,"CC(CO)Nc1nc(Nc2ccncc2)nc(-c2ccccc2)n1 (stereo not shown) [Compound 278, 2-(4-phenyl-6-(pyridin-4-ylamino)-1,3,5-triazin-2-ylamino)propan-1-ol]",No Fit
4,"OC1CCCCC1Nc1nc(Nc2ccncc2)nc(-c2ccccc2)n1 (stereo not shown) [Compound 282, 2-(4-phenyl-6-(pyridin-4-ylamino)-1,3,5-triazin-2-ylamino)cyclohexanol]",No Fit
5,"O[C@H]1CC[C@@H](Nc2nc(Nc3ccncc3)nc(-c3ccccc3)n2)C1 [Compound 283, (1S,3R)-3-(4-phenyl-6-(pyridin-4-ylamino)-1,3,5-triazin-2-ylamino)cyclopentanol]",No Fit

# Same assay, conditions: read-out: Enz R140Q
row,SMILES,IC50
1,CC(C)Nc1nc(Nc2ccccc2)nc(-c2ccc(C#N)cc2)n1 [Compound 108],100 to 1000 nM
2,"CN(C)C(=O)Nc1nc(Nc2ccccc2)nc(-c2ccccc2)n1 [Compound 182, 1,1-dimethyl-3-(4-phenyl-6-(phenylamino)-1,3,5-triazin-2-yl)urea]",100 to 1000 nM
3,"CCNC(=O)Nc1nc(Nc2ccccc2)nc(-c2ccccc2)n1 [Compound 207, 1-ethyl-3-(4-phenyl-6-(phenylamino)-1,3,5-triazin-2-yl)urea]",100 to 1000 nM
4,"c1ccc(-c2nc(NCC3CCCO3)nc(Nc3ccncc3)n2)cc1 (stereo not shown) [Compound 222, 6-phenyl-N^2-(pyridin-4-yl)-N^4-((tetrahydrofuran-2-yl)methyl)-1,3,5-triazine-2,4-diamine]",100 to 1000 nM
5,"CC1(Nc2nc(Nc3ccncc3)nc(-c3ccccc3)n2)COC1 [Compound 251, N^2-(3-methyloxetan-3-yl)-6-phenyl-N^4-(pyridin-4-yl)-1,3,5-triazine-2,4-diamine]",100 to 1000 nM
6,"OC1CCC(Nc2nc(Nc3ccncc3)nc(-c3ccccc3)n2)CC1 (stereo not shown) [Compound 256, 4-(4-phenyl-6-(pyridin-4-ylamino)-1,3,5-triazin-2-ylamino)cyclohexanol]",1000 to 10000 nM
7,"c1ccc(-c2nc(Nc3ccncc3)nc(NC3CCOCC3)n2)cc1 [Compound 258, 6-phenyl-N^2-(pyridin-4-yl)-N^4-(tetrahydro-2H-pyran-4-yl)-1,3,5-triazine-2,4-diamine]",1000 to 10000 nM
8,"c1ccc(-c2nc(NCC3CCO3)nc(Nc3ccncc3)n2)cc1 (stereo not shown) [Compound 264, N^2-(oxetan-2-ylmethyl)-6-phenyl-N^4-(pyridin-4-yl)-1,3,5-triazine-2,4-diamine]",1000 to 10000 nM
9,"CC(C)(O)CNc1nc(Nc2ccncc2)nc(-c2ccccc2)n1 [Compound 265, 2-methyl-1-(4-phenyl-6-(pyridin-4-ylamino)-1,3,5-triazin-2-ylamino)propan-2-ol]",100 to 1000 nM
10,"COCC(C)Nc1nc(Nc2ccncc2)nc(-c2ccccc2)n1 (stereo not shown) [Compound 272, N^2-(1-methoxypropan-2-yl)-6-phenyl-N^4-(pyridin-4-yl)-1,3,5-triazine-2,4-diamine]",100 to 1000 nM
11,"c1ccc(-c2nc(Nc3ccncc3)nc(NC3CCCOC3)n2)cc1 (stereo not shown) [Compound 273, 6-phenyl-N^2-(pyridin-4-yl)-N^4-(tetrahydro-2H-pyran-3-yl)-1,3,5-triazine-2,4-diamine]",> 10000 nM
12,"COC(C)CNc1nc(Nc2ccncc2)nc(-c2ccccc2)n1 (stereo not shown) [Compound 274, N^2-(2-methoxypropyl)-6-phenyl-N^4-(pyridin-4-yl)-1,3,5-triazine-2,4-diamine]",> 10000 nM
13,"COCCCNc1nc(Nc2ccncc2)nc(-c2ccccc2)n1 [Compound 275, N^2-(3-methoxypropyl)-6-phenyl-N^4-(pyridin-4-yl)-1,3,5-triazine-2,4-diamine]",100 to 1000 nM
14,"O=C1CC(Nc2nc(Nc3ccncc3)nc(-c3ccccc3)n2)C1 [Compound 276, 3-(4-phenyl-6-(pyridin-4-ylamino)-1,3,5-triazin-2-ylamino)cyclobutanone]",100 to 1000 nM
15,"CC[S+]([O-])c1cccc(Nc2nc(NC(C)C)nc(-c3ccccc3)n2)c1 (stereo not shown) [Compound 277, N^2-(3-(ethylsulfinyl)phenyl)-N^4-isopropyl-6-phenyl-1,3,5-triazine-2,4-diamine]",< 100 nM
16,"CC(C)C(CO)Nc1nc(Nc2ccncc2)nc(-c2ccccc2)n1 (stereo not shown) [Compound 279, 3-methyl-2-(4-phenyl-6-(pyridin-4-ylamino)-1,3,5-triazin-2-ylamino)butan-1-ol]",> 10000 nM
17,"c1ccc(-c2nc(Nc3ccncc3)nc(NC3CCCCC3)n2)cc1 [Compound 280, N^2-cyclohexyl-6-phenyl-N^4-(pyridin-4-yl)-1,3,5-triazine-2,4-diamine]",> 10000 nM
18,"Cc1ccc(Nc2nc(NC(C)C)nc(-c3ccccc3)n2)cn1 [Compound 281, N^2-isopropyl-N^4-(6-methylpyridin-3-yl)-6-phenyl-1,3,5-triazine-2,4-diamine]",< 100 nM
19,"N#CC1(Nc2nc(Nc3ccncc3)nc(-c3ccccc3)n2)CC1 [Compound 285, 1-(4-phenyl-6-(pyridin-4-ylamino)-1,3,5-triazin-2-ylamino)cyclopropanecarbonitrile]",1000 to 10000 nM
20,"CC(C)(C)C(CO)Nc1nc(Nc2ccncc2)nc(-c2ccccc2)n1 (stereo not shown) [Compound 286, 3,3-dimethyl-2-(4-phenyl-6-(pyridin-4-ylamino)-1,3,5-triazin-2-ylamino)butan-1-ol]",> 10000 nM
21,"c1ccc(-c2nc(Nc3ccncc3)nc(NC3CCCC3)n2)cc1 [Compound 287, N^2-cyclopentyl-6-phenyl-N^4-(pyridin-4-yl)-1,3,5-triazine-2,4-diamine]",100 to 1000 nM
22,"O=C(Nc1nc(Nc2ccccc2)nc(-c2ccccc2)n1)c1ccn[nH]1 [Compound 347, N-(4-phenyl-6-(phenylamino)-1,3,5-triazin-2-yl)-1H-pyrazole-5-carboxamide]",100 to 1000 nM
23,"O=C(CO)Nc1nc(Nc2ccccc2)nc(-c2ccccc2)n1 [Compound 348, 2-hydroxy-N-(4-phenyl-6-(phenylamino)-1,3,5-triazin-2-yl)acetamide]",> 10000 nM
24,"CC#Cc1cccc(-c2nc(Nc3cccc(S(C)(=O)=O)c3)nc(NC(C)C)n2)n1 [Compound 365, N^2-isopropyl-N^4-(3-(methylsulfonyl)phenyl)-6-(6-(prop-1-ynyl)pyridin-2-yl)-1,3,5-triazine-2,4-diamine]",1000 to 10000 nM
25,"O=C(Nc1nc(Nc2ccccc2)nc(-c2ccccc2)n1)C1(O)CC1 [Compound 412, 1-hydroxy-N-(4-phenyl-6-(phenylamino)-1,3,5-triazin-2-yl)cyclopropanecarboxamide]",1000 to 10000 nM
26,"O=C1CCC(C(=O)Nc2nc(Nc3ccccc3)nc(-c3ccccc3)n2)N1 (stereo not shown) [Compound 413, 5-oxo-N-(4-phenyl-6-(phenylamino)-1,3,5-triazin-2-yl)pyrrolidine-2-carboxamide]",> 10000 nM
27,"O=C(Nc1nc(Nc2ccccc2)nc(-c2ccccc2)n1)C1CCOC1 (stereo not shown) [Compound 415, N-(4-phenyl-6-(phenylamino)-1,3,5-triazin-2-yl)tetrahydrofuran-3-carboxamide]",> 10000 nM

# Reference: patent US9512107B2, “Therapeutically active compositions and their methods of use” (Agios Pharmaceuticals, Inc., priority 2012, dated 2016)
